The values below come from paper PMC2225630 (The Journal of General Physiology, 1966).

Assay [1] concerns Na+-sensitive transport system (system A) of the Ehrlich cell. Put plainly: Na+-sensitive uptake of amino acids. Type of assay: cell-based, mice.
Assay [2] relates to Na+-insensitive uptake, Ehrlich cell. The experiment in a line: Uptake of amino acids by Ehrlich cells from Na+-free medium. Type of assay: cell-based, mice. The conditions noted are these: for uptake (Table II): amino acid 1 mM, [Na+] 0; for inhibitory action on the uptake of methionine: choline has replaced Na+ (Table I); for Uptake of methionine in presence of inhibitor (Table I): labeled methionine 1 mM; for Uptake of methionine in presence of inhibitor (Table I) / Uptake of AIB in presence of inhibitor (Table I) / Uptake of labeled amino acid without inhibitor (Table I): no Na+; for Km: read-out: Km for the other amino acid (Table V), choline medium, 37 C, pH 7.4, 1 min, only approximate; for Km / Ratio of uptake Methionine/other amino acid (Table VI): absence of Na+; for Rate of methionine uptake (Table IV): 1 mM, Na+-free Krebs-Ringer phosphate medium; for Uptake of AIB in presence of inhibitor (Table I): labeled AIB 1 mM; for Uptake of labeled amino acid without inhibitor (Table I): labeled amino acid 1 mM, inhibitor 0.

Assay [3] relates to Ehrlich cell. To be noted: first minute, high amino acid levels; cited from earlier work.
For assay [4], the system named is Ehrlich cell. It counts as cell-based, mice. The conditions noted are these: above 16 mM methionine, modified KRB medium with Na+, 1 min, 37 C, pH 7.4.
[5] abbreviates: [Na+] 107 mEq/liter, 1 min, 37 C, pH 7.4.
Setting [6] is: methionine 0.25 mM + AIB 1.0 mM, 1 min, 37 C, pH 7.4.
Where [7] appears, read: methionine 0.5 mM + AIB 2.0 mM, 1 min, 37 C, pH 7.4.
Setting [8] is: methionine 1.0 mM + AIB 4.0 mM, 1 min, 37 C, pH 7.4.
[9] abbreviates: read-out: Km of Na+-sensitive uptake, [Na+] 107 mEq/liter, 1 min, 37 C, pH 7.4.
Setting [10] is: choline chloride substituting for NaCl, Exp. 1.
[11] abbreviates: choline chloride substituting for NaCl, Exp. 2.
Setting [12] is: sucrose substituting for NaCl, Exp. 1.
[13] abbreviates: sucrose substituting for NaCl, Exp. 2.

For orientation: Km means the substrate concentration at which the rate is half of its maximum.

“And” between values parts separate entries of the source, which are not always exact repeats. Identical values can stand only once. Like-named read-outs stand apart in the source and are kept apart here.

For the compound `CC(C)(N)C(=O)O` [AIB, a-aminoisobutyric acid, reference compound], the “Vmax of Na+-sensitive uptake” value in assay [1] (setting [5]) amounted to 5 mmoles/kg cell water min. Further, in assay [1], the “Vmax, velocities extrapolated to infinite [Na+]” value is 7.1 mM/kg cell water min. Moreover, the results for the “Sodium-sensitive uptake rate of the test amino acid in mixture (Table III)” value in assay [1] (setting [6]), in assay [1] (setting [7]) and in assay [1] (setting [8]) were 0.51 mmoles/kg cell water min, 0.64 mmoles/kg cell water min and 0.77 mmoles/kg cell water min, respectively. Further, the Michaelis-Menten constant (Km) in assay [1] (setting [9]) is 2000 µM. For the same compound, the “uptake (Table II)” value in assay [2] (setting [10]) was 0.16 mmoles/kg cell water min; in assay [2] (setting [11]), 0.21 mmoles/kg cell water min; in assay [2] (setting [12]), 0.21 mmoles/kg cell water min; in assay [2] (setting [13]), 0.29 mmoles/kg cell water min. Besides, in assay [2], the “inhibitory action on the uptake of methionine” value is reported as “no significant inhibitory action”. The “Uptake of methionine in presence of inhibitor (Table I)” value in assay [2] (inhibitor 4 mM) was 2.63 mmoles/kg cell water-min; in assay [2] (inhibitor 8 mM) it was 2.62 mmoles/kg cell water-min. In addition, in the assay with Ehrlich cell [3], the “rate of permeation at high levels ("nonsaturable" migration)” value was 0.1 min-'.

Consider `CNC(C)(C)C(=O)O` [MeAIB, α-(methylamino)-isobutyric acid, reference compound], for which the Michaelis constant (Km) in assay [1] (setting [9]) was around 300 µM. For the same compound, the “inhibitory action on the uptake of methionine” value in assay [2] is reported as “no significant action”. Further, the “Uptake of methionine in presence of inhibitor (Table I)” value in assay [2] (inhibitor 16 mM) worked out at 1.77 mmoles/kg cell water-min.

`C[C@H](N)C(=O)O` [alanine]: in assay [1] (difference method of Fig. 5), the “Vmax of Na+-sensitive uptake” value is listed as 6.4 mmoles per kg cell water min.

Take `NCC(=O)O` [glycine]: the “Vmax of Na+-sensitive uptake” value in assay [1] (difference method of Fig. 5) was 7.4 mmoles per kg cell water min.

With `CC(C)C[C@H](N)C(=O)O` [leucine], in assay [2], the Km is 150 µM.

As for `CSCC[C@H](N)C(=O)O` [methionine, L-methionine], the “inhibition of the saturable uptake of AIB” value in assay [1] (Na+ at 107 mEq/liter, Fig. 10) is recorded as “so nearly complete”. For the same compound, the “Vmax of Na+-sensitive uptake” value in assay [1] (setting [5]) was 4 mmoles/kg cell water min and 3.7 mmoles/kg cell water min. Moreover, the “Vmax, velocities extrapolated to infinite [Na+]” value in assay [1] is recorded as 5.0 mM/kg cell water min. For the same compound, the “inhibition of the uptake of MeAIB” value in assay [1] (in the presence of Na+) is recorded as “inhibits almost completely”. In addition, the “Ratio of uptake rates methionine/AIB (Table III)” value in assay [1] (methionine 0.25 mM + AIB 1.0 mM) is listed as 1.1; in assay [1] (methionine 0.5 mM + AIB 2.0 mM), 1.5; in assay [1] (methionine 1.0 mM + AIB 4.0 mM) it was 1.4. For the same compound, the “Sodium-sensitive uptake rate of the test amino acid in mixture (Table III)” value in assay [1] (setting [6]) stood at 0.58 mmoles/kg cell water min; in assay [1] (setting [7]) it was 0.99 mmoles/kg cell water min; in assay [1] (setting [8]), 1.04 mmoles/kg cell water min. Further, the Km in assay [1] (setting [9]) is 300 µM; in assay [1] (read-out: Km, velocities extrapolated to infinite [Na+], data of Fig. 12 left), 140 µM. Also, in the assay on Ehrlich cell [4], the “linear slope of increase of uptake rate with methionine concentration” value was determined as 0.09 min- l. In addition, the “Rate of methionine uptake (Table IV)” value in assay [2] (pH 5.6, Exp. 1) is 3.03 mmoles/kg cell water min; in assay [2] (pH 5.6, Exp. 2), 2.99 mmoles/kg cell water min; in assay [2] (pH 6.3, Exp. 1), 3.03 mmoles/kg cell water min; in assay [2] (pH 6.3, Exp. 2), 3.08 mmoles/kg cell water min; in assay [2] (pH 7.0, Exp. 1) it was 2.86 mmoles/kg cell water min; in assay [2] (pH 7.0, Exp. 2), 2.87 mmoles/kg cell water min. Moreover, the “inhibitory action on the residual uptake of AIB” value in assay [2] (Na+ replaced with choline+ (Table I)) was “negligible inhibitory action”. In assay [2] (after 1 min, all Na+ eliminated from the medium), the “distribution ratio (cellular level to extracellular level)” value came out at 2.25. The “uptake (Table II)” value stood at 1.35 mmoles/kg cell water min in assay [2] (setting [10]), 2.48 mmoles/kg cell water min in assay [2] (setting [11]), 1.44 mmoles/kg cell water min in assay [2] (setting [12]) and 2.79 mmoles/kg cell water min in assay [2] (setting [13]). The results for the “Uptake of AIB in presence of inhibitor (Table I)” value in assay [2] (inhibitor 0.5 mM) and in assay [2] (inhibitor 1 mM) were 0.17 mmoles/kg cell water-min and 0.14 mmoles/kg cell water-min, respectively. The “Uptake of labeled amino acid without inhibitor (Table I)” value is given as 2.68 mmoles/kg cell water-min in assay [2] (experiment with AIB as inhibitor) and 1.77 mmoles/kg cell water-min in assay [2] (experiment with MeAIB as inhibitor). Further, the “Ratio of uptake Methionine/other amino acid (Table VI)” value in assay [2] (methionine and leucine, each 0.2 mM) was determined as 0.99; in assay [2] (methionine and leucine, each 0.4 mM) it was 0.94; in assay [2] (methionine and leucine, each 0.8 mM) it was 0.92; in assay [2] (methionine and leucine, each 1.6 mM), 0.99; in assay [2] (methionine and valine, each 0.25 mM), 3.2; in assay [2] (methionine and valine, each 0.5 mM) it was 2.18. In addition, the “Ratio of uptake Methionine/other amino acid (Table VI)” value in assay [2] (methionine and valine, each 1.0 mM) was found to be 1.65; in assay [2] (methionine and valine, each 2.0 mM) it was 1.33.

Regarding `CC(C)[C@H](N)C(=O)O` [valine], the Km in assay [2] stood at 750 µM.
